From patent US20170313669A1, “LACTONE COMPOUNDS AND METHODS OF MAKING AND USING SAME” (THE SCRIPPS RESEARCH INSTITUTE, priority 2015, published 2017)
pIC50: −log10 of the molar value.

Assays:
mouse ABHD16A = target: T1, mouse ABHD16A (Mus musculus, UniProt Q9Z1Q2); experiment: Competitive gel-based ABPP, mouse ABHD16A-transfected HEK293T proteome; format: biochemical; conditions: 30 min, 37° C., then FP-rhodamine 2 μM
T1 construct: full-length cDNA of human ABHD16A (Open Biosystems Catalog # MHS6278-202758315) or murine ABHD16A (Open Biosystems Catalog # MMM1013-202760516); host or cells: HEK293T, transient, pCMV-SPORT6
T1 sequence (Q9Z1Q2 1-558): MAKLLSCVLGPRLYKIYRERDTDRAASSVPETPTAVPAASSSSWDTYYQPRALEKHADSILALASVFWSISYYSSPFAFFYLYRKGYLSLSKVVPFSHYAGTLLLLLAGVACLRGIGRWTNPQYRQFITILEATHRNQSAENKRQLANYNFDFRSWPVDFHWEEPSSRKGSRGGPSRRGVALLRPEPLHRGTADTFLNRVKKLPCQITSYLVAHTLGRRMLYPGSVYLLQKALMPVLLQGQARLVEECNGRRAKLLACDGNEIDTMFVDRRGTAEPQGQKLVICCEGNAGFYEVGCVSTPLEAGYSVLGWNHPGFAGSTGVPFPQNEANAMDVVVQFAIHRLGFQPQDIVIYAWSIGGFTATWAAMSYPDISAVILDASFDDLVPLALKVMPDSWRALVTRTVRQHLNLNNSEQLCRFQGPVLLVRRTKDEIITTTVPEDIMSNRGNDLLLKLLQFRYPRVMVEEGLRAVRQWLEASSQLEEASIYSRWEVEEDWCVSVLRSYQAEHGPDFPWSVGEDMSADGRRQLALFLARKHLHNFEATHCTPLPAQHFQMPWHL

[1] = system: human lymphoblast cell lines (LCLs); experiment: Lyso-PS content of treated LCLs; format: cell-based; conditions: 1 μM, 4 h
Method: ABHD16A^+/+, ABHD16A^+/+, and ABHD16A^−/− littermates of 10 weeks age were anaesthetized by isoflurane and killed by decapitation. The tissues (brains were sliced laterally into two hemispheres; entire spinal cord) were harvested, weighed, and immediately submerged in liquid N2. Tissues (one half brain or entire spinal cord) were then Dounce-homogenized in 8 mL of 2:1:1 (vol/vol/vol) CHCl3: MeOH: PBS containing the internal standard mix (1 nmol 17:1 FFA, and 100 pmol each of 17:1 lyso-PS, 17:0-20:4 PS, 17:1 lyso-PC, 17:0-20:4 PC, 17:0-20:4 PE and 50 pmol of 2-AG-d5). Homogenates were transferred to a glass vial and centrifuged at 2800×g for 10 minutes to separate the two phases. The organic phase (bottom) was removed, 200 μL of formic acid was added to acidify the aqueous homogenate (to enhance extraction of phospholipids), and CHCl3 was added to make up 8 mL volume. […]
All the metabolites analyzed in this study were quantified using the multiple reaction monitoring (MRM) methods the targeted LC/MS analysis was done using an Agilent Technologies 6460 Triple Quad LC/M with an Agilent Technologies 1290 Infinity series quaternary pump. All data was collected using the LC/MS Data Acquisition mode of the Mass Hunter Workstation Software version B.05.00 build 5.0.5027.0 SP, and analyzed using the Quantitative Analysis mode of the same software. […]

## CCCCCCCCCCCCCC1OC(=O)/C1=C\CCCCC(N)=O (stereo not drawn) [KC01, (Z)-6-(2-oxo-4-tridecyloxetan-3-ylidene)hexanamide]
Mouse ABHD16A
  pIC50: ~6.30
[1]; ABHD12-null LCL
  secreted lyso-PSs: significantly lowered
[1]; all LCLs
  cellular lyso-PSs: decreased cellular lyso-PSs
